Measurements as given in ChEMBL document CHEMBL1201862, “PubChem BioAssay data set” (2004).
Active and inactive are the calls of the source.

Key:
Major prion protein = Major prion protein (Homo sapiens, UniProt P04156); format: functional, cell-based
[1] = potency of ADAM10 substrate cleavage blockers – biochemical, QFRET, dose response (AID 743254);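 further: ADAM10 enzyme with the DM2 quenched FRET peptide as substrate; EDANS fluorescence gain as the protease cuts the substrate; inhibitor potency against ADAM10 proteolytic activity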
[2] = molecular target: T1, Disintegrin and metalloproteinase domain-containing protein 17 (Homo sapiens, UniProt P78536); experiment: inhibition of ADAM17 substrate cleavage – biochemical, quenched FRET substrate, counter-screen for ADAM10 exosite inhibitor project, dose response (AID 743253)
[3] = molecular target: NAD-dependent protein deacylase sirtuin-5, mitochondrial (Homo sapiens, UniProt Q9NXA8); experiment: sirtuin-5 deacylation blockers, concentration series – biochemical, fluorescence imaging, cherry-pick, set 5, dose response (AID 720591);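 further: desuccinylation of succinyl peptide AMC substrate read as fluorescence after trypsin release; potency of inhibitors that lower fluorescence and may act on trypsin instead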
Cryptococcus neoformans = experiment: PubChem AID 686997; format: functional, organism-based
HeLa = experiment: viability loss in HeLa cells – cell-based, ATP luminescence, cherry-pick samples, cytotoxicity control, dose response (AID 687004); format: functional
[4] = molecular target: T1, Disintegrin and metalloproteinase domain-containing protein 17; experiment: exosite inhibitors of ADAM17, dose response, biochemical (AID 743260)
[5] = inhibition of ADAM10 peptide cleavage – biochemical, FRET peptide substrate, recombinant human ADAM10, selectivity assay for ADAM17 exosite inhibitor project, dose response (AID 743259);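 further: ADAM10 enzyme cleaving a FRET peptide substrate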
Paired box protein Pax-8 = Paired box protein Pax-8 (Homo sapiens, UniProt Q06710); experiment: PAX8 transcriptional activity inhibition in RMG-I – RMG-I cells, luciferase, cherry-pick, dose response (AID 687027); format: functional, cell-based;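 further: luciferase reporter driven by Pax8 target thyroperoxidase promoter measured by SteadyGlo luminescence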
[6] = OVCAR-3 cell viability loss – plate reader, dry powder samples, PAX8 inhibitor project, dose response (AID 743044); format: functional, cell-based
[7] = IGROV1 cell killing – plate reader, dry powder samples, PAX8 inhibitor project, dose response (AID 743043); format: functional, cell-based; details: IGROV-1
[8] = general cell-killing toxicity readout – plate reader, dry powder samples, cytotoxicity control for PAX8 inhibitor project, dose response (AID 743021); format: functional, cell-based
[9] = P. falciparum Dd2 growth inhibitors, dose response, SYBR Green, cherry-picked samples (AID 1159567); format: functional, cell-based
[10] = toxicity to human hepatoma HepG2 cells – cell-based, cherry-picked samples, cytotoxicity control, dose response (AID 1159577); format: functional
[11] = OVCAR8 cell viability loss – plate reader, dry powder samples, PAX8 project, dose response (AID 743197); format: functional, cell-based; details: OVCAR-8
[12] = molecular target: COUP transcription factor 2 (Homo sapiens, UniProt P24468); experiment: Luminescence-based cell-based high throughput dose response assay to identify inhibitors of COUP-TFII (NR2F2).; format: functional;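 further: HEK293 cells transiently cotransfected with COUP-TFII expression vector and reporter; luciferase reporter luminescence driven by COUP-TFII from the pX2-168 reporter plasmid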
[13] = Dd2 parasite growth inhibition in erythrocytes – SYBR Green, dry powder samples, set 9, dose response (AID 1159568); format: functional, cell-based

For `Brc1ccc2nc(-c3ccco3)c(Cc3ccccc3)n2c1`, the IC50 (Major prion protein) was 6.67 µM (active) and the IC50 (cells) was 113 µM (inactive).

With `Oc1ccc(C[C@H]2CNC(=S)N2CC2CCCN2C[C@H](Cc2ccccc2)N2C[C@H](Cc3ccc(O)cc3)N(CC3CCCCC3)C2=S)cc1` (stereo not given in full) the IC50 [1] was 7.86 µM (active) and the IC50 [2] was > 69.5 µM (inactive).

With `CCCCC[C@@H](C)N1C[C@H](COCc2ccccc2)Oc2cc(N3CCC[C@@H]3CO)ccc2S1(=O)=O` the AC50 [3] was > 30 µM (inactive).

For `COC(=O)C1=C(C)N(Cc2ccc(Br)cc2)C(=S)NC1c1ccc(F)cc1` (stereo not given), the AC50 (Cryptococcus neoformans) was 23.2 µM (active), the AC50 (Cryptococcus neoformans; Cryptococcus neoformans) was 40.3 µM (active) and the AC50 (HeLa) was > 52 µM (inactive). The AC50 (HeLa; Homo sapiens) was > 47 µM (inactive), the IC50 [4] was > 69.6 µM (inactive) and the IC50 [5] was 52.8 µM (inactive).

In the case of `COc1ccccc1NC(=O)N1CCCCN2[C@H](CO)[C@H](c3ccc(-c4cccc(C)c4)cc3)[C@H]2C1`, the AC50 (Paired box protein Pax-8) is reported as 14.6 µM (active), the AC50 [6] is reported as 22.8 µM (active) and the AC50 [7] is reported as 64.1 µM (active). For the same compound, the AC50 [8] was 2.56 µM (active), the AC50 [9] was 1.44 µM (active) and the AC50 [10] was 9.66 µM (active).

With `O=C(C1CCCC1)N1CC[C@@H]2[C@H](CO)Nc3ccc(C4=CCCCC4)cc3[C@@H]21` the AC50 (Paired box protein Pax-8) was 12.7 µM (active), the AC50 [6] was 25.5 µM (active) and the AC50 [11] was 33.1 µM (active). The AC50 [9] was 5.7 µM (active) and the AC50 [10] was > 39 µM (inactive).

With `COc1ccc(C(=O)C2CCN(c3ncnc4sccc34)CC2)cc1` the IC50 [12] was 1.77 µM (active).

For `COc1ccc2c3c([nH]c2c1)[C@H](CO)N(C(C)=O)CC31CN(Cc2ccccc2Cl)C1`, the AC50 [13] was 3 µM (active).

With `Cc1ccc(S(=O)(=O)N2CC[C@H]3[C@H](CO)Nc4ccc(-c5cccc(C(=O)N(C)C)c5)cc4[C@H]32)cc1` the AC50 [13] was 3.07 µM (active).
